Assay results as given in the NIST ThermoML archive (doi:10.1021/je0601457).

Experiment: xn = mol fraction of the nth substance listed

Cc1nccnc1C [2,3-dimethylpyrazine] + O=C=O
Fluid (supercritical or subcritical phases), Linear displacement technique
Conditions | mass density [kg/m3]
311.45 K, 9210 kPa, x1 = 0.184 | 918
311.45 K, 12380 kPa, x1 = 0.184 | 925
311.45 K, 16720 kPa, x1 = 0.184 | 932
312.65 K, 10170 kPa, x1 = 0.033 | 763
312.65 K, 12660 kPa, x1 = 0.033 | 804
312.65 K, 15970 kPa, x1 = 0.033 | 851
312.75 K, 8520 kPa, x1 = 0.057 | 874
312.75 K, 9970 kPa, x1 = 0.057 | 905
312.75 K, 10450 kPa, x1 = 0.057 | 914
313.95 K, 10520 kPa, x1 = 0.108 | 879
313.95 K, 13660 kPa, x1 = 0.108 | 888
313.95 K, 17210 kPa, x1 = 0.108 | 896
314.25 K, 9830 kPa, x1 = 0.01 | 500
314.25 K, 11830 kPa, x1 = 0.01 | 769
314.25 K, 18590 kPa, x1 = 0.01 | 799
315.85 K, 9380 kPa, x1 = 0.086 | 702
315.85 K, 12310 kPa, x1 = 0.086 | 728
315.85 K, 16520 kPa, x1 = 0.086 | 752
315.85 K, 24210 kPa, x1 = 0.086 | 786
316.05 K, 7480 kPa, x1 = 0.291 | 857
316.05 K, 8660 kPa, x1 = 0.291 | 858
316.05 K, 11340 kPa, x1 = 0.291 | 858
316.25 K, 6170 kPa, x1 = 0.565 | 923
316.25 K, 10000 kPa, x1 = 0.565 | 926
316.25 K, 16380 kPa, x1 = 0.565 | 935
317.35 K, 5590 kPa, x1 = 0.736 | 859
317.35 K, 11590 kPa, x1 = 0.736 | 860
317.35 K, 16450 kPa, x1 = 0.736 | 862
318.75 K, 7690 kPa, x1 = 0.433 | 955
318.75 K, 16070 kPa, x1 = 0.433 | 969
318.75 K, 22930 kPa, x1 = 0.433 | 977
319.35 K, 10520 kPa, x1 = 0.049 | 834
319.35 K, 15340 kPa, x1 = 0.049 | 906
319.35 K, 18660 kPa, x1 = 0.049 | 946
321.05 K, 10210 kPa, x1 = 0.157 | 927
321.05 K, 12000 kPa, x1 = 0.157 | 937
321.05 K, 16280 kPa, x1 = 0.157 | 958
321.05 K, 18660 kPa, x1 = 0.157 | 970
322.35 K, 11790 kPa, x1 = 0.027 | 717
322.35 K, 13000 kPa, x1 = 0.027 | 688
322.35 K, 13410 kPa, x1 = 0.027 | 761
322.35 K, 15620 kPa, x1 = 0.027 | 757
322.35 K, 16310 kPa, x1 = 0.027 | 812
323.35 K, 10660 kPa, x1 = 0.057 | 815
323.35 K, 11970 kPa, x1 = 0.057 | 849
323.35 K, 16030 kPa, x1 = 0.057 | 904
324.95 K, 7830 kPa, x1 = 0.433 | 944
324.95 K, 13900 kPa, x1 = 0.433 | 955
324.95 K, 20660 kPa, x1 = 0.433 | 968
325.25 K, 6140 kPa, x1 = 0.736 | 859
325.25 K, 10720 kPa, x1 = 0.736 | 860
325.25 K, 18170 kPa, x1 = 0.736 | 861
325.65 K, 10520 kPa, x1 = 0.184 | 894
325.65 K, 12660 kPa, x1 = 0.184 | 903
325.65 K, 18030 kPa, x1 = 0.184 | 916
328.55 K, 10170 kPa, x1 = 0.291 | 857
328.55 K, 10660 kPa, x1 = 0.01 | 438
328.55 K, 10970 kPa, x1 = 0.01 | 552
328.55 K, 11970 kPa, x1 = 0.01 | 635
328.55 K, 12140 kPa, x1 = 0.291 | 858
328.55 K, 13000 kPa, x1 = 0.01 | 688

Liquid, linear displacement
Conditions | mass density [kg/m3]
311.45 K, x1 = 0.184 | 912
312.65 K, x1 = 0.033 | 694
312.75 K, x1 = 0.057 | 860
313.95 K, x1 = 0.108 | 864
314.25 K, x1 = 0.01 | 584
315.85 K, x1 = 0.086 | 687
316.05 K, x1 = 0.291 | 858
316.25 K, x1 = 0.565 | 920
317.35 K, x1 = 0.736 | 859
318.75 K, x1 = 0.433 | 951
319.35 K, x1 = 0.049 | 790
321.05 K, x1 = 0.157 | 912
322.35 K, x1 = 0.027 | 612
323.35 K, x1 = 0.057 | 784
324.95 K, x1 = 0.433 | 940
325.25 K, x1 = 0.736 | 857
325.65 K, x1 = 0.184 | 885
